ChEMBL document CHEMBL4715869, “N-(Pyrimidin-2-yl)-1,2,3,4-tetrahydroisoquinolin-6-amine Derivatives as Selective Janus Kinase 2 Inhibitors for the Treatment of Myeloproliferative Neoplasms” (J Med Chem, 2020)
The source made the active and inactive calls. The rule behind the calls is not given here.

Assays:
[1] = biological target: T1, Signal transducer and activator of transcription 1 (Mus musculus) (UniProt P42225); assay: Inhibition of STAT1 phosphorylation in mouse BAF3 cells at 1000 nM after 2 hrs by Western blot analysis; assay type: cell-based
T1 sequence (whole entry): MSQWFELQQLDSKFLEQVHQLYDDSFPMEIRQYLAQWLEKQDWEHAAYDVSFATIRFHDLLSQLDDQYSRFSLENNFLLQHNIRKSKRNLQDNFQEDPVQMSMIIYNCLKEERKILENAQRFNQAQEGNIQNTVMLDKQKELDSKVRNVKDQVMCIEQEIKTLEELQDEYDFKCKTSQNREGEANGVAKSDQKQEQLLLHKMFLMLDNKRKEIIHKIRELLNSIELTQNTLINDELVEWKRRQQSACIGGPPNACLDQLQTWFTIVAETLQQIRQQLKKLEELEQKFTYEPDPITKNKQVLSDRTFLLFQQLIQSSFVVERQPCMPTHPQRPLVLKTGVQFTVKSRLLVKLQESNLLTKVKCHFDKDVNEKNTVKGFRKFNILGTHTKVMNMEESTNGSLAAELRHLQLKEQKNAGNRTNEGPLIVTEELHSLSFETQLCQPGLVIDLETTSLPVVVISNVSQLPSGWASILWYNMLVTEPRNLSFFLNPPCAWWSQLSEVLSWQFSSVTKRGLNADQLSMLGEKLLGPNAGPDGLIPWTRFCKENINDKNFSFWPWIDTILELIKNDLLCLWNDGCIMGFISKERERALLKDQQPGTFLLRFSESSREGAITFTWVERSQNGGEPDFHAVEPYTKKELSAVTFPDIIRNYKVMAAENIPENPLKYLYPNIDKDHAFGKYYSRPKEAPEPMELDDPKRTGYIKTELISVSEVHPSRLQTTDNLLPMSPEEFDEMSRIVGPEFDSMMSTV

SET-2 [2] = assay: Induction of apoptosis in human SET-2 cells assessed as early apoptotic cells at 0.8 uM incubated for 24 hrs by Annexin V/PI staining based flow cytometric analysis (reference value: 1.47 %); assay type: functional
[3] = test system: Tyrosine-protein kinase JAK2 (Homo sapiens), O60674 [V617F]; assay: Inhibition of JAK2 V617F mutant in human SET-2 cells assessed as reduction in JAk2 phosphorylation after 2 hrs by Western blot analysis; assay type: cell-based; details: SET2, dose 1-1000 nM
[4] = Toxicity in Balb/c mouse assessed as effect on hematocrit at 30 to 60 mg/kg, po administered daily for 14 days; assay type: organism-based; details: in vivo, 336 h, dose 30-60 mg/kg, time 14 day
SET-2 [5] = assay: Induction of apoptosis in human SET-2 cells assessed as early apoptotic cells at 0.2 uM incubated for 24 hrs by Annexin V/PI staining based flow cytometric analysis (reference value: 1.47 %); assay type: functional
[6] = Oral bioavailability in Sprague-Dawley rat at 5 mg/kg administered via gavage measured upto 24 hrs by LC/MS/MS analysis; assay type: ADME, organism-based; details: in vivo
[7] = Toxicity in NOD/SCID mouse xenografted with human SET2 cells assessed as animal survival at 15 mg/kg, po qd administered for 16 days and measured every 2 days; assay type: organism-based; details: in vivo, 384 h, time 16 day
[8] = Elimination half life in male Sprague-Dawley rat at 5 mg/kg, po administered via gavage measured upto 24 hrs by LC/MS/MS analysis; assay type: ADME, organism-based; details: in vivo, read-out: beta t1/2 (converted)
[9] = test system: Tyrosine-protein kinase JAK2 (Homo sapiens), O60674 [V617F]; assay: Inhibition of JAK2 V617F mutant in human SET-2 cells assessed as reduction in STAT5 phosphorylation after 2 hrs by Western blot analysis; assay type: cell-based; details: SET2, dose 1-1000 nM
SET-2 [10] = assay: Induction of apoptosis in human SET-2 cells assessed as late apoptotic cells at 0.8 uM incubated for 24 hrs by Annexin V/PI staining based flow cytometric analysis (reference value: 1.52%); assay type: functional
SET-2 [11] = assay: Induction of apoptosis in human SET-2 cells assessed as early apoptotic cells at 1.6 uM incubated for 24 hrs by Annexin V/PI staining based flow cytometric analysis (reference value: 1.47 %); assay type: functional
[12] = Metabolic stability in rat liver microsomes assessed as half-life; assay type: ADME, Microsome
SET-2 [13] = assay: Antitumor activity against human SET2 cells xenografted in NOD/SCID mouse assessed as tumor growth inhibition at 30 mg/kg, po qd administered for 16 days and measured every 2 days relative to control; assay type: functional; details: SET-2, po, 384 h, time 16 day, read-out: TGI
SET-2 [14] = assay: Induction of apoptosis in human SET-2 cells assessed as early apoptotic cells at 0.4 uM incubated for 24 hrs by Annexin V/PI staining based flow cytometric analysis (reference value: 1.47 %); assay type: functional
[15] = biological target: T2, Signal transducer and transcription activator 6 (Mus musculus) (UniProt P52633); assay: Inhibition of STAT6 phosphorylation in mouse BAF3 cells at 1000 nM after 2 hrs by Western blot analysis; assay type: cell-based
T2 sequence (whole entry): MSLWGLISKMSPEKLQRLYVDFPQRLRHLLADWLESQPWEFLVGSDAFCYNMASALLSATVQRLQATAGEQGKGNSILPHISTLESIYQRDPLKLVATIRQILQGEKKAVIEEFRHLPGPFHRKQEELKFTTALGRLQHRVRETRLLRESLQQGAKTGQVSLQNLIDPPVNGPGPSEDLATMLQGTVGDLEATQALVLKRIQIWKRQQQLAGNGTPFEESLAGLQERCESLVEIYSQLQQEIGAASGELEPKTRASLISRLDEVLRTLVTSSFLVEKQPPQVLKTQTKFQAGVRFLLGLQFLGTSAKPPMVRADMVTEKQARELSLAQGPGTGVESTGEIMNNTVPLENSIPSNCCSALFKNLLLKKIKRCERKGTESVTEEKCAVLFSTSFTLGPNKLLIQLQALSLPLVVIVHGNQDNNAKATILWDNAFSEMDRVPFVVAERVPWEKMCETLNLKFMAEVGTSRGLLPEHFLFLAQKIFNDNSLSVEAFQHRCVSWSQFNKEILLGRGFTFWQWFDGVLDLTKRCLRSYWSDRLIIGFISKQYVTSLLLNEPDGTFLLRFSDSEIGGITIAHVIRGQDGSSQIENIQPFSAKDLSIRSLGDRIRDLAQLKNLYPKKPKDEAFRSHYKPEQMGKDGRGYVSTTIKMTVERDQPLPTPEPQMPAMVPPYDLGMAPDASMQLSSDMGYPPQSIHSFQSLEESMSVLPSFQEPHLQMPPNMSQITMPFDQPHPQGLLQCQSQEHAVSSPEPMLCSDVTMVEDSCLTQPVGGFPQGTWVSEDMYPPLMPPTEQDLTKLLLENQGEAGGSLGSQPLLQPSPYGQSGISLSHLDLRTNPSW

BaF3 = assay: Antitumor activity against mouse BAF3 cells harboring JAK2 V617F mutant implanted in Balb/c mouse assessed as decrease in spleen weight at 30 mg/kg, po qd administered starting from day 4 to 20 and measured on day 25 relative to control; assay type: functional; parameters: scale not given: the % may be the effect or the level left; details: time 21 day
Homo sapiens = species on record: Homo sapiens; assay: Selectivity index, ratio of IC50 for inhibition of FLT3 ITD mutant in human MOLM13 cells to IC50 for inhibition of JAK2 V617F mutant in human SET-2 cells; assay type: cell-based

Chain of Tyrosine-protein kinase JAK2 (Homo sapiens), O60674 [V617F] (O60674 whole entry V617F): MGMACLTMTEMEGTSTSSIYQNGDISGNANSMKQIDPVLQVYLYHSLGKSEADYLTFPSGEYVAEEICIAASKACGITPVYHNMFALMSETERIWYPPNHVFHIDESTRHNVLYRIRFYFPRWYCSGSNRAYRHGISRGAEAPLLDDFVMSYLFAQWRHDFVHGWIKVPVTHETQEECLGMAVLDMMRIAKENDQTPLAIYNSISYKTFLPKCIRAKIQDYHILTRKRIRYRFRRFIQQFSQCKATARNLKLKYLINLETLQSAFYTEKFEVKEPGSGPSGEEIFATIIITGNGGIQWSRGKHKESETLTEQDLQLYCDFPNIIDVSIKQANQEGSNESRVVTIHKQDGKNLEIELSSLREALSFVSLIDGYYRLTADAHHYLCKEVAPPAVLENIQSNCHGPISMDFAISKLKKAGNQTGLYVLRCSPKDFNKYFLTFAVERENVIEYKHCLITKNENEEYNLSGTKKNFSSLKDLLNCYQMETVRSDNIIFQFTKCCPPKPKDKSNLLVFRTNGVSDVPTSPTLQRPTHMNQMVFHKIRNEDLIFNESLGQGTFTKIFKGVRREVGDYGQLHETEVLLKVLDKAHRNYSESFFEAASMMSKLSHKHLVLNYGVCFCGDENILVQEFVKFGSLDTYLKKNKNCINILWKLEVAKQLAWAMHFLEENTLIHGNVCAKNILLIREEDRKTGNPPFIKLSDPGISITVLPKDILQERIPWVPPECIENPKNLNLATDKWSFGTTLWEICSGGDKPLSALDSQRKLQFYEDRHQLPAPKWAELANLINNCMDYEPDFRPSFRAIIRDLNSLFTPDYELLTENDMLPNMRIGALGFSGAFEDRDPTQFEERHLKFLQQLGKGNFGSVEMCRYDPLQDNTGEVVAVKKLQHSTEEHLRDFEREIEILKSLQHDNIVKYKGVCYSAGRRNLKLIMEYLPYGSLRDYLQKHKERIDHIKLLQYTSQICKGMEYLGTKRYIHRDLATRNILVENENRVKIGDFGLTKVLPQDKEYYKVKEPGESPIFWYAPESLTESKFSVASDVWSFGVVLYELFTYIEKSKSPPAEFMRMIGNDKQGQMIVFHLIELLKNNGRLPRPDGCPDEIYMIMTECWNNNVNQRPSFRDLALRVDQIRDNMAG

Cc1cnc(Nc2ccc3c(c2)CCN(C(=O)/C=C/CN(C)C)C3)nc1-c1cnn(C(C)C)c1
inhibition [1]: inactive
Activity (SET-2 [2]): 9.12%
inhibition [3]: Dose-dependent effect
Activity [4]: Toxic
Activity (SET-2 [5]): 3.36%
bioavailability [6]: 25.7%
Activity [7]: Non-Toxic
half-life [8]: 1.8 h
inhibition [9]: Dose-dependent effect
Activity (SET-2 [10]): 40.19%
Activity (SET-2 [11]): 27.3%
half-life [12]: 0.91 h
inhibition in vivo at 30 mg/kg (SET-2 [13]): 67.8%
Activity (SET-2 [14]): 5.92%
inhibition [15]: inactive
Activity (BaF3): 44%
Ratio IC50 (Homo sapiens): 75.2
